Patent US11884653B2, “Arylnaphthalene compounds as vacuolar-ATPase inhibitors and the use thereof” (Purdue Research Foundation, priority 2018, dated 2024)

Molecular target: V-ATPase
Test: acridine orange quenching (proton-pumping function of V-ATPase) in isolated HEK293 vesicles
Type: biochemical
Settings: read-out: AO Quenching IC50
Experimental: To assess if ability of diphyllin and derivatives to inhibit endosomal acidification is due to the expected ability of diphyllin to inhibit V-ATPase activity, compounds were assayed for inhibition of both the proton-pumping and ATPase functions of the isolated V-ATPase enzyme. V-ATPase containing vesicles were isolated from HEK293 cells following methods similar to that found in […]. (Zoncu, R. et al., Science 2011, 334, 678-683). To determine the effect of compounds upon the proton pumping function of V-ATPase, isolated vesicles were incubated with acridine orange and the compound or vehicle for 1 h prior to the addition of ATP which initiated pump activity. The quenching of the 530 nm emission of acridine orange was measured over 1h before addition of nigericin to relax the proton gradient within vesicles. IC50 values against the proton-pumping function of V-ATPase could be assessed by quantifying the change in Acridine Orange (AO) fluorescence immediately before and after the addition of nigericin.
HEK293 vesicle isolation-Cells were grown to confluency in a 175 cm^2 flask (Corning) before growth media was removed and replaced with serum-free DMEM for 2 h. 1 μM FCCP in DMEM was then added for 15 min before cells were scrapped form the plate and pelleted at 1000×g for 5 min. […]

- IC50: 61 ± 2.84 nM
Compound: COc1cc2c(OCCCN3CCN(CCO)CC3)c3c(c(-c4ccc5c(c4)OCO5)c2cc1OC)C(=O)OC3 [Compound 2i, 9-(benzo[d][1,3]dioxol-5-yl)-4-(3-(4-(2-hydroxyethyl)piperazin-1-yl)propoxy)-6,7-dimethoxynaphtho[2,3-c]furan-1(3H)-one]
